Assay results taken from US20080207693A1, “Mitotic Kinesin Inhibitors” (priority 2005, published 2008).
pIC50: −log10 of the molar value.

Target: T1, human KSP motor domain (KSP(367H)) (Homo sapiens, UniProt P52732)
T1 construct: were used to amplify the motor domain and the neck linker region; made in house; host or cells: E. coli BL21 (DE3), vector pRSETa
T1 sequence (P52732 18-359 limits assumed): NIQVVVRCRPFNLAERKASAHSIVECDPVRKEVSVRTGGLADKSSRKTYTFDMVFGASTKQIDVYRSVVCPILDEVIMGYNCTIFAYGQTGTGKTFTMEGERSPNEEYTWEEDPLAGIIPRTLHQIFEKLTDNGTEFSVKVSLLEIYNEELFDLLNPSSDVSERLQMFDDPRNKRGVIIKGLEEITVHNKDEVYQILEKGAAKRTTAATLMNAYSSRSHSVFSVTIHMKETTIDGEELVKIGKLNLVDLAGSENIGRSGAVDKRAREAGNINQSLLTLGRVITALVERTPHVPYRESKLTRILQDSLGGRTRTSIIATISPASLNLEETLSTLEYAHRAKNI
Assay: Kinesin ATPase in vitro assay
Format: biochemical
Details: KSP motor domain with microtubules, 1 mM ATP, 23° C.; free phosphate by quinaldine red/ammonium molybdate
Text: I. Kinesin ATPase In Vitro Assay
Cloning and Expression of Human Poly-Histidine Tagged KSP Motor Domain (KSP(367H))
Plasmids for the expression of the human KSP motor domain construct were cloned by PCR using a pBluescript full length human KSP construct (Blangy et al., Cell, vol. 83, pp 1159-1169, 1995) as a template. The N-terminal primer 5′-[…] (SEQ. ID. NO.: 1) and the C-terminal primer 5′-[…] […] (SEQ. ID. NO.: 2) were used to amplify the motor domain and the neck linker region. The PCR products were digested with AseI and XhoI, ligated into the NdeI/XhoI digestion product of pRSETa (Invitrogen) and transformed into E. coli BL21 (DE3).
Cells were grown at 37° C. to an OD600 of 0.5. […]
The kinesin motor domain is incubated with microtubules, 1 mM ATP (1:1 MgCl2: Na-ATP), and compound at 23° C. in buffer containing 80 mM K-HEPES (pH 7.0), 1 mM EGTA, 1 mM DTT, 1 mM MgCl2, and 50 mM KCl. […] Free phosphate from the ATP hydrolysis reaction is measured via a quinaldine red/ammonium molybdate assay by adding 150 μl of quench C buffer containing a 2:1 ratio of quench A:quench B. Quench A contains 0.1 mg/ml quinaldine red and 0.14% polyvinyl alcohol; quench B contains 12.3 mM ammonium molybdate tetrahydrate in 1.15 M sulfuric acid. The reaction is incubated for 10 minutes at 23° C., and the absorbance of the phospho-molybdate complex is measured at […].

CN(C(=O)N1CC(c2cc(F)ccc2F)=C[C@@]1(CO)c1ccccc1)[C@H]1CCN(CCC[Si](C)(C)C)C[C@H]1F [Compound 11-1, (2S)-4-(2,5-difluorophenyl)-N-{(3R,4S)-3-fluoro-1-[3-(trimethylsilyl)propyl]piperidin-4-yl}-2-(hydroxymethyl)-N-methyl-2-phenyl-2,5-dihydro-1H-pyrrole-1-carboxamide] was tested, and the pIC50 was at least 4.30.
